Measurements published in US20100069366A1, “ANTIBACTERIAL QUINOLINE DERIVATIVES” (JANSSEN-CILAG, priority 2006, published 2010).
In brackets after ≈: the same amount, converted by molar mass. Like-named read-outs stand apart in the source and are kept apart here.

Key:
Assay type in all cases: cell-based
[1] = test system: Streptococcus pyogens (ATCC8668); experiment: Microtitre plate assay, IC90 determination, SPY 8668
Method: (§1) The bacteria used in this study were grown overnight in flasks containing 100 ml Mueller-Hinton Broth (Becton Dickinson—cat. no. 275730) in sterile de-ionized water, with shaking, at 37° C. Stocks (0.5 ml/tube) were stored at −70° C. until use. Bacteria titrations were performed in microtiter plates to detect the TCID50, in which the TCID50 represents the dilution that gives rise to bacterial growth in 50% of inoculated cultures.
(§2) In general, an inoculum level of approximately 100 TCID50 was used for susceptibility testing.
(§3) Flat-bottom, sterile 96-well plastic microtiter plates were filled with 180 μl of sterile deionized water, supplemented with 0.25% BSA. Subsequently, stock solutions (7.8× final test concentration) of compounds were added in 45 μl volumes in column 2 Serial five-fold dilutions (45 μl in […]) were made directly in the microtiter plates from column 2 to reach column 11. Untreated control samples with (column 1) and without (column 12) inoculum were included in each microtiter plate. Depending on the bacteria type, approximately 10 to 60 CFU per well of bacteria inoculum (100 TCID50), in a volume of 100 μl in 2.8× Mueller-Hinton broth medium, was added to the rows A to H, except column 12. The same volume of broth medium without inoculum was added to column 12 in row A to H. The cultures were incubated at 37° C. for 24 hours under a normal atmosphere (incubator with open air valve and continuous ventilation). At the end of incubation, one day after inoculation, the bacterial growth was quantitated fluorometrically. Therefore resazurin (0.6 mg/ml) was added in a volume of 20 μl to all wells 3 hours after inoculation, and the plates were re-incubated overnight. A change in colour from blue to pink indicated the growth of bacteria. The fluorescence was read in a computer-controlled fluorometer (Cytofluor Biosearch) at an excitation wavelength of 530 nm and an emission wavelength of 590 nm. The % growth inhibition achieved by the compounds was calculated according to standard methods.

[2] = test system: Streptococcus pneumoniae (ATCC6305); experiment: Microtitre plate assay, IC90 determination, SPN 6305; conditions: 90% inhibitory concentration for bacterial growth, resazurin
Method: as §1, §2, §3

[3] = test system: Pseudomonas aeruginosa (ATCC27853); experiment: Microtitre plate assay, IC90 determination, PAE 27853
Method: as §1, §2, §3

[4] = test system: Staphylococcus aureus (ATCC29213); experiment: Microtitre plate assay, IC90 determination, STA 29213
Method: as §1, §2, §3

[5] = test system: M. Smegmatis ATCC607; experiment: In-vitro anti-bacterial activity against strain M. smegmatis ATCC607; conditions: for IC90: Mycolicibacterium smegmatis
Method: Flat-bottom, sterile 96-well plastic microtiter plates were filled with 180 μl of sterile deionized water, supplemented with 0.25% BSA. Subsequently, stock solutions (7.8× final test concentration) of compounds were added in 45 μl volumes to a series of duplicate wells in column 2 so as to allow evaluation of their effects on bacterial growth. Serial five-fold dilutions (45 μl in 180 μl) were made directly in the microtiter plates from column 2 to 11 using a customised robot system (Zymark Corp., Hopkinton, Mass.). Pipette tips were changed after every 3 dilutions to minimize pipetting errors with high hydrophobic compounds. Untreated control samples with (column 1) and without (column 12) inoculum were included in each microtiter plate. Approximately 250 CFU per well of bacteria inoculum, in a volume of 100 μl in 2.8× Mueller-Hinton broth medium, was added to the rows A to H, except column 12. The same volume of broth medium without inoculum was added to column 12 in row A to H. The cultures were incubated at 37° C. for 48 hours in a humidified 5% CO2 atmosphere (incubator with open air valve and continuous ventilation). At the end of incubation, two days after inoculation, the bacterial growth was quantitated fluorometrically. Therefore Alamar Blue (10×) was added to all wells in a volume of 20 μl and plates were incubated for another 2 hours at […]
The fluorescence was read in a computer-controlled fluorometer (Cytofluor, Biosearch) at an excitation wavelength of 530 nm and an emission wavelength of 590 nm (gain 30).

[6] = test system: Enterococcus faecalis (ATCC29212); experiment: Microtitre plate assay, IC90 determination, EFA 29212
Method: as §1, §2, §3

[7] = Streptococcus pyogens ATCC8668, 90% inhibitory concentration for bacterial growth, resazurin, read-out: IC90 (μg/ml) SPY 8668
[8] = Streptococcus pneumoniae ATCC6305, read-out: IC90 (μg/ml) SPN 6305
[9] = Pseudomonas aeruginosa ATCC27853, 90% inhibitory concentration for bacterial growth, resazurin, read-out: IC90 (μg/ml) PAE 27853
[10] = Staphylococcus aureus ATCC29213, 90% inhibitory concentration for bacterial growth, resazurin, read-out: IC90 (μg/ml) STA 29213
[11] = ATCC607, 90% inhibitory concentration for bacterial growth, 48 hours, Alamar Blue fluorescence, read-out: M. smegmatis IC90
[12] = Enterococcus faecalis ATCC29212, 90% inhibitory concentration for bacterial growth, resazurin, read-out: IC90 (μg/ml) EFA 29212
[13] = Streptococcus, ATCC8668, read-out: IC90 (μg/ml) SPY 8668
[14] = Streptococcus pneumoniae, ATCC6305, read-out: IC90 (μg/ml) SPN 6305, Streptococcus pneumoniae ATCC6305
[15] = Pseudomonas aeruginosa, ATCC27853, read-out: IC90 (μg/ml) PAE 27853
[16] = Staphylococcus aureus, ATCC29213, read-out: IC90 (μg/ml) STA 29213
[17] = ATCC607, 48 h, read-out: M. smegmatis IC90 (μg/ml), 90% inhibitory concentration for bacterial growth, Alamar Blue fluorescence
[18] = Streptococcus pyogens ATCC8668, 90% inhibitory concentration for bacterial growth, resazurin
[19] = Streptococcus pneumoniae ATCC6305
[20] = Pseudomonas aeruginosa ATCC27853, 90% inhibitory concentration for bacterial growth, resazurin
[21] = Staphylococcus aureus ATCC29213, 90% inhibitory concentration for bacterial growth, resazurin
[22] = 90% inhibitory concentration for bacterial growth, 48 hours, Alamar Blue fluorescence
[23] = Enterococcus faecalis ATCC29212, 90% inhibitory concentration for bacterial growth, resazurin

Structure (SMILES) | IC90 [2, 14] [µg/mL] | IC90 [4, 16] [µg/mL] | IC90 [5, 17] [µg/mL] | IC90 (μg/ml) SPN 6305 [2, 19] [µg/mL] | IC90 (μg/ml) STA 29213 [4, 21] [µg/mL] | M. smegmatis IC90 [5, 22] [µg/mL] | other results
COc1nc2ccc(Br)cc2cc1C(/C(C)=C/CN(C)C)c1ccccc1 (stereo not shown) [Compound 14] |  |  |  |  |  |  | IC90 [1, 7]: 26.8 µg/mL (≈ 63.1 µM); IC90 [2, 8]: 1.35 µg/mL (≈ 3.17 µM); IC90 [3, 9]: 37.9 µg/mL (≈ 89.1 µM); IC90 [4, 10]: 33.8 µg/mL (≈ 79.4 µM); IC90 [5, 11]: 1.35 µg/mL (≈ 3.17 µM); IC90 [6, 12]: 37.9 µg/mL (≈ 89.1 µM)
COc1nc2ccc(-c3ccccc3)cc2cc1C(/C(=C/CN(C)C)c1ccccc1)c1ccccc1 (stereo not shown) [Compound 11] | 1.22 (≈ 2.52 µM) | 1.53 (≈ 3.16 µM) | 1.53 (≈ 3.16 µM) |  |  |  | IC90 [1, 13]: 7.68 µg/mL (≈ 15.8 µM); IC90 [3, 15]: 7.68 µg/mL (≈ 15.8 µM); IC90 ([6]; Enterococcus faecalis, ATCC29212, read-out: IC90 (μg/ml) EFA 29212): 15.3 µg/mL (≈ 31.6 µM)
COc1nc2ccc(Br)cc2cc1C(=C(C)CCN(C)C)c1ccccc1 (mixture of isomers) [Compound 35] |  |  |  | 1.35 | 33.79 | 3.79 | IC90 (μg/ml) SPY 8668 [1, 18]: 1.35 µg/mL; IC90 (μg/ml) PAE 27853 [3, 20]: 15.09 µg/mL; IC90 (μg/ml) EFA 29212 [6, 23]: 15.09 µg/mL
COc1nc2ccc(Br)cc2cc1C(/C(=C/CN(C)C)c1ccsc1)c1ccccc1 (stereo not shown) [Compound 17] |  |  |  |  |  |  | IC90 [1, 7]: 19.6 µg/mL (≈ 39.8 µM); IC90 [2, 8]: 7.82 µg/mL (≈ 15.8 µM); IC90 [3, 9]: 44 µg/mL (≈ 89.1 µM); IC90 [4, 10]: 15.6 µg/mL (≈ 31.6 µM); IC90 [5, 11]: 39.2 µg/mL (≈ 79.4 µM); IC90 [6, 12]: 39.2 µg/mL (≈ 79.4 µM)
COc1nc2ccc(Br)cc2cc1C(C(=CCN(C)C)c1cccc(F)c1)c1ccccc1 (racemic) [Compound 25] |  |  |  | 8.01 (≈ 15.8 µM) | 22.58 (≈ 44.7 µM) | 40.15 | IC90 (μg/ml) SPY 8668 [1, 18]: 17.93 µg/mL (≈ 35.5 µM); IC90 (μg/ml) PAE 27853 [3, 20]: 40.15 µg/mL (≈ 79.4 µM); IC90 (μg/ml) EFA 29212 [6, 23]: 40.15 µg/mL (≈ 79.4 µM)
COc1nc2ccc(-c3ccccc3)cc2cc1C(C(=CCN(C)C)c1cccc2ccccc12)c1ccccc1 (mixture of isomers) [Compound 32] |  |  |  | 1.9 | 1.69 | 1.69 | IC90 (μg/ml) SPY 8668 [1, 18]: 3.79 µg/mL; IC90 (μg/ml) PAE 27853 [3, 20]: 3.79 µg/mL; IC90 (μg/ml) EFA 29212 [6, 23]: 9.51 µg/mL
COc1nc2ccc(Br)cc2cc1C(/C(=C/C[N+](C)(C)C)c1cccc(F)c1)c1ccccc1 (stereo not shown) [Compound 23] | 1.85 | 1.65 | 1.85 |  |  |  | IC90 [1, 13]: 1.65 µg/mL; IC90 [3, 15]: 6.55 µg/mL
Clc1ccc(/C(CCCCN2CCCCC2)=C(/c2ccc(Cl)cc2)c2cnc3ccccc3c2)cc1 [Compound 52] | 10.3 (≈ 20 µM) | 10.3 (≈ 20 µM) | 1.63 (≈ 3.16 µM) |  |  |  | 
COc1nc2ccc(-c3ccco3)cc2cc1C(/C(=C/CN(C)C)c1cccc2ccccc12)c1ccccc1 (stereo not shown) [Compound 21] | 23.4 (≈ 44.7 µM) | 41.7 (≈ 79.4 µM) | 14.8 (≈ 28.2 µM) |  |  |  | 
COc1nc2ccc(Br)cc2cc1C(=C(CCn1ccnc1)c1ccccc1)c1ccccc1 (single isomer, unassigned) [Compound 5] |  |  |  | 36.14 (≈ 70.8 µM) | 36.14 (≈ 70.8 µM) | 5.1 | 
CSc1nc2ccc(-c3ccccc3)cc2cc1C(=C(CCN(C)C)c1ccccc1)c1ccccc1 (single isomer, unassigned) [Compound 40] |  |  |  | 3.98 (≈ 7.95 µM) | 19.93 (≈ 39.8 µM) | 1.58 | IC90 (μg/ml) SPY 8668 [1, 18]: 7.94 µg/mL (≈ 15.9 µM); IC90 (μg/ml) EFA 29212 [6, 23]: 15.83 µg/mL (≈ 31.6 µM)
CCN(CC)CC=C(c1cccc2ccccc12)C(c1ccccc1)c1cc2cc(Br)ccc2nc1OC (racemic) [Compound 28] |  |  |  | 2.01 (≈ 3.55 µM) | 8.96 (≈ 15.8 µM) | 1.79 | 
CCN(C)CCC/C=C(\CCc1ccccc1)C(c1ccccc1)c1cc2cc(Br)ccc2nc1OC (stereo not shown) [Compound 61] |  |  |  |  |  |  | IC90 [2, 8]: 1.76 µg/mL (≈ 3.16 µM); IC90 [4, 10]: 1.76 µg/mL (≈ 3.16 µM); IC90 [5, 11]: 1.76 µg/mL (≈ 3.16 µM)
COc1nc2ccc(F)cc2cc1C(C(=CCN(C)C)c1ccccc1)c1ccccc1 (racemic) [Compound 24] |  |  |  | 1.51 (≈ 3.54 µM) | 33.88 (≈ 79.4 µM) | 5.37 | 
CSc1nc2ccc(Br)cc2cc1/C(=C(\CCN(C)C)c1ccccc1)c1ccccc1 [Compound 3] | 1.59 (≈ 3.16 µM) | 7.98 (≈ 15.8 µM) | 2 (≈ 3.97 µM) |  |  |  | 
